For twelve compounds, GI50 and TGI results are on record in PubChem BioAssay (NCI).

Values joined by “and” are separate entries in the source; they are usually repeats but may differ in a detail not shown here. Identical values can stand only once.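 All cell lines were grown in 96-well plates and treated with compound for 48 hours. Abbreviation: GI50, concentration required for 50% inhibition of growth. TGI: total growth inhibition.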 A value given as a limit tells only on which side of the number the result lay.

Some test systems named below: MOLT-4 leukemia; LOX IMVI melanoma; RPMI-8226 leukemia; SF-268 CNS; SK-OV-3 ovarian; HCT-116 colon; SW-620 colon; M14 melanoma; HS 578T breast; ACHN renal.
What all share (assay): NCI tumour cell line growth inhibition, 48 h

Turning to `O=S1(=O)NCCCN1CCNc1nccc(-c2c(-c3cccc(O)c3)nc3sccn23)n1`, the GI50 is 22.9 µM in the assay on MOLT-4 leukemia; 2.46 µM in the assay with LOX IMVI melanoma; 35.9 µM in the assay on RPMI-8226 leukemia; 24.4 µM in the assay on SF-268 CNS; 5.93 µM in the assay with SK-OV-3 ovarian; 5.26 µM with HCT-116 colon. In addition, the GI50 with SW-620 colon is 33 µM; with M14 melanoma, 0.366 µM; with HS 578T breast, 10.8 µM; with ACHN renal it was 11.8 µM. Further, the TGI was more than 77.6 µM with MOLT-4 leukemia; 24 µM in the assay on LOX IMVI melanoma; more than 87.5 µM with RPMI-8226 leukemia; more than 100 µM with SF-268 CNS; 63.8 µM in the assay on SK-OV-3 ovarian; 38.4 µM in the assay with HCT-116 colon. Also, the TGI is more than 100 µM with SW-620 colon, 15.5 µM in the assay on M14 melanoma, more than 81.4 µM in the assay on HS 578T breast and more than 100 µM in the assay with ACHN renal.
As to `CCCCCCCCCCCC[n+]1ccccc1` (tested in a mixture with another compound), the GI50 in the assay with MOLT-4 leukemia is 1.34 µM; in the assay on LOX IMVI melanoma, 0.691 µM; in the assay on RPMI-8226 leukemia, 0.23 µM; with SF-268 CNS, 1.2 µM; in the assay on SK-OV-3 ovarian, 1.16 µM; with HCT-116 colon, 0.548 µM. Further, the GI50 with SW-620 colon is 1.57 µM; with M14 melanoma, 1.1 µM; in the assay with HS 578T breast, 1.71 µM; with ACHN renal, 2.25 µM. Moreover, the TGI in the assay with MOLT-4 leukemia was determined as 4.78 µM; in the assay with LOX IMVI melanoma it was 2.41 µM; with RPMI-8226 leukemia, 1.52 µM; in the assay with SF-268 CNS it was 3.44 µM; in the assay with SK-OV-3 ovarian, 3.74 µM; in the assay with HCT-116 colon, 2.62 µM. The TGI in the assay on SW-620 colon was found to be 10.5 µM; in the assay on HS 578T breast, 5.15 µM; in the assay with ACHN renal, 14.1 µM.
With `NC(=O)C1(N2CCCCC2)CCN(CCCC(=O)c2ccc(F)cc2)CC1`, the GI50 in the assay with MOLT-4 leukemia was 1.16 µM; in the assay with LOX IMVI melanoma, 0.254 µM; with RPMI-8226 leukemia, 0.208 µM; with SF-268 CNS, 2.6 µM; in the assay on SK-OV-3 ovarian, 3.26 µM; with HCT-116 colon, 0.777 µM. For the same compound, the GI50 with SW-620 colon is 0.173 µM; with M14 melanoma, 2.28 µM; with HS 578T breast, 2.37 µM; in the assay on ACHN renal it was 12.2 µM. In addition, the TGI is more than 81.6 µM in the assay on MOLT-4 leukemia; more than 100 µM in the assay on LOX IMVI melanoma; more than 100 µM in the assay with RPMI-8226 leukemia; more than 70.9 µM in the assay on SF-268 CNS; 35.3 µM in the assay with SK-OV-3 ovarian; more than 100 µM in the assay on HCT-116 colon. The TGI in the assay on SW-620 colon was more than 100 µM; in the assay on M14 melanoma it was 7.72 µM; in the assay on HS 578T breast, more than 100 µM; in the assay on ACHN renal, more than 100 µM.
For `CC1(C)CC[C@H](C2=CC(=O)c3c(O)ccc(O)c3C2=O)O1`, the GI50 in the assay on MOLT-4 leukemia is 0.487 µM and 0.16 µM and 0.137 µM; in the assay with LOX IMVI melanoma it was 1.78 µM and 0.303 µM and 0.658 µM; with RPMI-8226 leukemia, 1.42 µM and 0.278 µM and 0.398 µM; with SF-268 CNS, 3.54 µM and 2.19 µM and 1.01 µM; in the assay with SK-OV-3 ovarian it was 4.81 µM; with HCT-116 colon, 1.08 µM and 0.344 µM and 0.205 µM. In addition, the GI50 in the assay on SW-620 colon is 0.66 µM and 0.374 µM and 0.0996 µM; in the assay on M14 melanoma it was 0.797 µM and 0.274 µM and 0.201 µM; in the assay with ACHN renal it was 1.64 µM and 1.27 µM and 0.252 µM. For the same compound, the TGI is 4.66 µM and 1.13 µM and 1.97 µM in the assay on LOX IMVI melanoma; 5.13 µM and 0.992 µM and 2.2 µM in the assay on RPMI-8226 leukemia; 10.3 µM and 6.27 µM and 6.67 µM with SF-268 CNS; 18.8 µM and 13.7 µM with SK-OV-3 ovarian; 2.57 µM and 1.3 µM and 0.579 µM in the assay with HCT-116 colon; 1.67 µM and 1.64 µM and 0.229 µM with SW-620 colon. For the same compound, the TGI was 1.78 µM and 0.859 µM and 0.438 µM with M14 melanoma; 6.78 µM and 7.42 µM in the assay with HS 578T breast; 3.45 µM and 2.55 µM and 0.69 µM with ACHN renal.
Turning to `CNC(=O)c1cc2c(Oc3ccc(NC(=O)C4(C(=O)Nc5ccc(F)cc5)CC4)cc3)ccnc2cc1OC`, the GI50 in the assay with MOLT-4 leukemia is 2.23 µM; in the assay with LOX IMVI melanoma, 2.57 µM; in the assay on RPMI-8226 leukemia, 2.6 µM; with SF-268 CNS it was 3.06 µM; with SK-OV-3 ovarian, 2.94 µM; in the assay on HCT-116 colon, 3.23 µM. Also, the GI50 in the assay on SW-620 colon is 2.64 µM; in the assay on M14 melanoma, 2.45 µM; with HS 578T breast it was 1.11 µM; in the assay with ACHN renal, 2.31 µM. Besides, the TGI in the assay with MOLT-4 leukemia is 8.18 µM; in the assay on LOX IMVI melanoma, 8.93 µM; with RPMI-8226 leukemia, 55.9 µM; in the assay with SF-268 CNS, more than 100 µM; with SK-OV-3 ovarian, 9.33 µM; in the assay with HCT-116 colon, 14.2 µM. In addition, the TGI with SW-620 colon is more than 100 µM; with M14 melanoma it was 11.2 µM; in the assay on HS 578T breast, 4.69 µM; in the assay on ACHN renal it was more than 100 µM.
Consider `O=C(O)CCC(NC(=S)S)C(=O)O.[Na+].[Zn+2]` (stereo unspecified), for which the GI50 in the assay on MOLT-4 leukemia, in the assay with LOX IMVI melanoma, in the assay with RPMI-8226 leukemia, in the assay with SF-268 CNS, in the assay on SK-OV-3 ovarian and in the assay on HCT-116 colon was more than 50 µM throughout. Further, the GI50 in the assay with SW-620 colon, with M14 melanoma, in the assay on HS 578T breast and in the assay with ACHN renal was more than 50 µM each time. Besides, the TGI in the assay with MOLT-4 leukemia, in the assay with LOX IMVI melanoma, with RPMI-8226 leukemia, with SF-268 CNS, with SK-OV-3 ovarian and in the assay on HCT-116 colon was more than 50 µM throughout. The TGI with SW-620 colon, in the assay with M14 melanoma, in the assay on HS 578T breast and in the assay on ACHN renal was more than 50 µM in each case.
Consider `Cn1c([N+](=O)[O-])cnc1/C=C1\Oc2cc(Cl)ccc2C1=O`, for which the GI50 in the assay on MOLT-4 leukemia is 0.212 µM; in the assay on LOX IMVI melanoma, 0.2 µM; in the assay with RPMI-8226 leukemia it was 1.73 µM; with SF-268 CNS it was 0.371 µM; in the assay on SK-OV-3 ovarian, 1.94 µM; with HCT-116 colon, 0.201 µM. Further, the GI50 with SW-620 colon was 0.159 µM; in the assay on M14 melanoma, 0.499 µM; with HS 578T breast, 1.69 µM; with ACHN renal it was 0.209 µM. Also, the TGI is 2.32 µM with MOLT-4 leukemia; 0.553 µM with LOX IMVI melanoma; more than 20.5 µM in the assay with RPMI-8226 leukemia; 2.85 µM with SF-268 CNS; more than 22.8 µM in the assay on SK-OV-3 ovarian; 0.806 µM in the assay with HCT-116 colon. Besides, the TGI was 1.06 µM in the assay on SW-620 colon, 4.61 µM with M14 melanoma and more than 24.4 µM in the assay on HS 578T breast.
As for `CCSc1nc(N)c2cn[nH]c2n1`, the GI50 in the assay on MOLT-4 leukemia was 39.4 µM; in the assay with LOX IMVI melanoma it was 30.9 µM; in the assay with RPMI-8226 leukemia it was 21.3 µM; in the assay with SF-268 CNS it was 25.3 µM; in the assay on SK-OV-3 ovarian, 42.1 µM; with HCT-116 colon, 30.5 µM. Also, the GI50 in the assay on SW-620 colon is 31.7 µM; with M14 melanoma it was 33.8 µM; in the assay on HS 578T breast, 22.2 µM; in the assay with ACHN renal it was 31.3 µM. The TGI in the assay on MOLT-4 leukemia is more than 100 µM; in the assay with LOX IMVI melanoma, more than 100 µM; with RPMI-8226 leukemia, 49.1 µM; with SF-268 CNS it was 74.1 µM; in the assay with SK-OV-3 ovarian it was more than 100 µM; with HCT-116 colon it was more than 100 µM. The TGI in the assay on SW-620 colon was more than 100 µM; with M14 melanoma, more than 100 µM; with HS 578T breast it was 70.1 µM; in the assay on ACHN renal it was more than 100 µM.
Turning to `NC(=O)c1cccc(Nc2nccc(Nc3cccc(F)c3)n2)c1`, the GI50 is 13.1 µM in the assay on MOLT-4 leukemia; 7.66 µM in the assay on LOX IMVI melanoma; 11.4 µM with RPMI-8226 leukemia; 11.7 µM in the assay with SF-268 CNS; 5.85 µM in the assay on SK-OV-3 ovarian; 9.1 µM in the assay on HCT-116 colon. Further, the GI50 with SW-620 colon was 7.11 µM; in the assay on M14 melanoma, 8.92 µM; in the assay on HS 578T breast, 6.23 µM; in the assay with ACHN renal, 8.83 µM. For the same compound, the TGI in the assay with MOLT-4 leukemia was more than 25 µM; in the assay on LOX IMVI melanoma it was more than 25 µM; with RPMI-8226 leukemia it was more than 25 µM; with SF-268 CNS it was more than 25 µM; in the assay on SK-OV-3 ovarian, 17.2 µM; with HCT-116 colon, more than 25 µM. Also, the TGI is more than 24 µM with SW-620 colon, more than 25 µM with M14 melanoma, more than 25 µM with HS 578T breast and more than 25 µM in the assay with ACHN renal.
For the compound `O=C1C(SCCO)=C(SCCO)C(=O)c2ccccc21`, the TGI with MOLT-4 leukemia stood at 0.481 µM; in the assay with LOX IMVI melanoma, 0.812 µM; in the assay with RPMI-8226 leukemia, 3.09 µM; in the assay on SF-268 CNS, 3.21 µM; in the assay on SK-OV-3 ovarian it was 3.08 µM; in the assay with HCT-116 colon it was 9.54 µM. In addition, the TGI in the assay with SW-620 colon amounted to 1.47 µM; with M14 melanoma, 2.5 µM; with HS 578T breast, 4.99 µM; in the assay with ACHN renal it was 2.26 µM.
With `CC1CCCc2c1nn(C(=O)/C=C(\N)c1ccccc1)c2N` (stereo unspecified), the GI50 in the assay with MOLT-4 leukemia is 5.16 µM; in the assay on LOX IMVI melanoma, 6.29 µM; in the assay on RPMI-8226 leukemia, 9.13 µM; in the assay with SF-268 CNS, 9.61 µM; in the assay on SK-OV-3 ovarian, 14.5 µM; in the assay on HCT-116 colon, 5.55 µM. Also, the GI50 with SW-620 colon was 6.71 µM; with M14 melanoma it was 12.3 µM; in the assay on HS 578T breast, 22.4 µM; in the assay on ACHN renal it was 9.94 µM. Besides, the TGI in the assay on MOLT-4 leukemia was 84.9 µM; with LOX IMVI melanoma it was more than 100 µM; in the assay with RPMI-8226 leukemia, more than 100 µM; in the assay on SF-268 CNS, more than 100 µM; with SK-OV-3 ovarian it was more than 100 µM; in the assay on HCT-116 colon, 26.3 µM. Further, the TGI in the assay with SW-620 colon, in the assay on M14 melanoma, with HS 578T breast and with ACHN renal was more than 100 µM in each case.
As for `OC(c1ccc(Br)cc1)(c1cccs1)C1CC1` (stereo unspecified), the TGI with MOLT-4 leukemia is 67 µM; in the assay with LOX IMVI melanoma, 42.4 µM; in the assay with RPMI-8226 leukemia, 54.7 µM; in the assay on SF-268 CNS, 45.4 µM; in the assay with SK-OV-3 ovarian, more than 100 µM; with HCT-116 colon, 33.3 µM. Besides, the TGI in the assay with SW-620 colon was 87.5 µM; in the assay with M14 melanoma, 45.3 µM; in the assay with HS 578T breast, 49.5 µM; in the assay on ACHN renal, 76.3 µM.
